Assay results: PubChem BioAssay AID816 (SRMLSC, 2007)
Activity calls are given as the source filed them. The rule behind the calls is not given here.

System: S. cerevisiae GAL1 promoter reporter activation counterscreen
Test: yeast Gal1p promoter activation – S. cerevisiae, artefact control for yeast lifespan extension project (AID 816);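 note: yeast growth read after 24 h of incubation with compounds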

| Structure (SMILES) | EC50 |
| --- | --- |
| CCCc1[nH]nc2c1C(c1ccc(Br)s1)C(C#N)=C(N)O2 (stereo not given) | > 40 µM (inactive) |
| CCN(CCO)C(=O)C12CCC(C)(C(=O)C1)C2(C)C (stereo not given) | > 40 µM (inactive) |
| O=C(/C(=C/O)N=Nc1ccc(Cl)cc1)c1ccncc1 | > 40 µM (inactive) |
| CCCCOC(=O)CSc1nc2c(c(=O)[nH]c(=O)n2C)n1C/C=C(\C)Cl | > 40 µM (inactive) |
| CC(C)OCCCNS(=O)(=O)c1ccc2ccccc2c1 | > 40 µM (inactive) |
| Cn1nnnc1SCCNCC#Cc1ccccc1 | > 40 µM (inactive) |
| O=[N+]([O-])c1cc(S(=O)(=O)N2CCCCCC2)ccc1F | > 40 µM (inactive) |
| CNC(=O)/C(C#N)=C/c1c(F)cccc1Cl | > 40 µM (inactive) |
| COCCCN(C(=S)Nc1cc(Cl)cc(Cl)c1)C(C)c1ccncc1 (stereo not given) | > 40 µM (inactive) |
| Cc1nn(-c2c(Cl)cc(Cl)cc2Cl)c(=O)c2ccccc12 | > 40 µM (inactive) |
| Cc1ncc(C23CC4CC(CC(C4)C2)C3)[nH]1 | > 40 µM (inactive) |
| Cc1ccnc(-n2c(C)cc(/C=C3\C(=O)NC(=S)N(C)C3=O)c2C)c1 | > 40 µM (inactive) |
| Cc1ccc(C(C2=C(O)CC(C)(C)CC2=O)C2C(=O)CC(C)(C)CC2=O)o1 (stereo not given) | > 40 µM (inactive) |
| CCOC(=O)c1ccccc1N1C(=O)CSC1=S | > 40 µM (inactive) |
| Cc1cccc(N2C(=O)/C(=C\c3ccc(OC(F)F)cc3)c3ccccc3C2=O)c1 | > 40 µM (inactive) |
| O=C1Nc2cc(Cl)c(Cl)cc2N(O)N1c1cc(Cl)cc(Cl)c1 | > 40 µM (inactive) |
| COc1ccc(NCc2nc3ccccc3n2CCOc2ccccc2)cc1 | > 40 µM (inactive) |
| O=C(COc1ccc([N+](=O)[O-])cc1)N(Cc1ccccc1)Cc1ccccc1 | > 40 µM (inactive) |
| CCCCCCN1CC(C(=O)OCC)C(=O)C1=O (stereo not given) | > 40 µM (inactive) |
| Cc1cc(C)cc(CC2CC(=O)N(c3ccc(Cl)cn3)C2=O)c1 (stereo not given) | > 40 µM (inactive) |

| Structure (SMILES) | EC50 |
| --- | --- |
| O=C(O)c1c[nH]c(=S)n1-c1ccc(F)cc1 | > 40 µM (inactive) |
| COc1ccc(C(=O)C(CN2CCOCC2)c2ccccc2)cc1F (stereo not given) | > 40 µM (inactive) |
| CN(C)C1(c2nnnn2CCOC(=O)Nc2ccc(Cl)cc2)CCCCC1 | > 40 µM (inactive) |
| CC(C)n1c(=O)c2c(O)cc(=O)oc2c2ccccc21 | > 40 µM (inactive) |
| Cc1cc(C)c(S(=O)(=O)c2ccccc2)c(OC(=O)c2ccc(Cl)cc2Cl)n1 | > 40 µM (inactive) |
| CCCC(=O)Nc1ccccc1Sc1ncnc2scc(-c3ccccc3)c12 | > 40 µM (inactive) |
| COC(=O)C(=O)/C=C(\O)c1ccc(C)cc1 | > 40 µM (inactive) |
| COc1cccc(C2CC3C(=O)C=CC2N3Cc2ccccc2)c1 (stereo not given) | > 40 µM (inactive) |
| COC(=O)C1=C(C(=O)OC)C(c2cc(Br)ccc2O)c2sc(=O)[nH]c2S1 (stereo not given) | > 40 µM (inactive) |
| CCn1ncc(/C=N/NC(=O)c2ccc3c(c2)OCO3)c1C | > 40 µM (inactive) |
| COc1cc(OC)cc(-c2nc3ccccc3c(=O)n2OC(=O)c2ccc(Br)cc2)c1 | > 40 µM (inactive) |
| CC(=O)C(C(C)=O)c1c(Cl)c(O)c(O)c2c(C(=O)c3ccccc3)coc12 | > 40 µM (inactive) |
| O=S(=O)(Nc1nc2ccccc2nc1Cl)c1ccc2ccccc2c1 | > 40 µM (inactive) |
| CC[n+]1c(/C=C2\C=C(C)CC(C)(C)C2)sc2ccccc21 | > 40 µM (inactive) |
| Fc1cccc2sc(Nc3nnc(-c4ccccc4)o3)nc12 | > 40 µM (inactive) |
| CN1C/C(=C/c2cccnc2)C(=O)/C(=C/c2cccnc2)C1 | > 40 µM (inactive) |
| Cc1ccccc1Oc1cc(-n2ncc(Cl)c(Cl)c2=O)ncn1 | > 40 µM (inactive) |
| O=C1C=CCC(/C=C/c2ccccc2)O1 (stereo not given) | > 40 µM (inactive) |
| CC(=O)c1c(O)cc2n(c1=O)-c1ccc(Cl)cc1C2(C)C | > 40 µM (inactive) |
| C=CCN(CC=C)S(=O)(=O)c1ccc2nc(NC(=O)C(C)C)sc2c1 | > 40 µM (inactive) |
